In patent EP3494998A1, “GLYCOSYLATED PSMA INHIBITORS FOR IMAGING AND ENDORADIOTHERAPY” (Technische Universität München, priority 2017, dated 2019):
Like-named read-outs stand apart in the source and are kept apart here.

Legend:
[1] = molecular target: T1, PSMA (Homo sapiens, UniProt Q04609); assay: competitive binding assay (IC50) on LNCaP cells with ([125I]I-BA)KuE as radioligand; conditions: LNCaP cells (150,000/well); ([125I]I-BA)KuE (c = 0.2 nM) as radioligand; HBSS (1% BSA), 4°C, 1 h; natGa or natLu analogs; mean ± SD (n = 3)
T1 construct: PSMA-positive LNCAP cells (200265; Cell Lines Service GmbH) were cultivated; host or cells: LNCaP human prostate cancer cells
Procedure: (§1) One day (24h ± 2h) prior to all experiments with LNCaP cells, the cultivated cells were harvested using a mixture of trypsin/ethylendiaminetetraacetate (0.05%/ 0.02%) and phosphate buffered saline and centrifuged. After centrifugation, the supernatant was disposed and the cell pellet resuspended in culture medium. Afterwards, cells were counted with a hemocytometer (Neubauer) and seeded in 24-well plates.
Cells were incubated in HBSS (1% BSA) at 4°C for 1 h.

[2] = system: LNCaP cells; assay: cell surface binding and internalization in LNCaP cells; type: cell-based, human; conditions: for Internalization [%]: normalized to reference ([125I]I-BA)KuE, corrected for unspecific binding, c = 0.2 nM for 68Ga and 0.5 nM for 177Lu compounds, 37°C, 1 h, 125,000 cells/well, mean ± SD (n = 3); for internalized fraction of total applied activity: 60 min incubation, not normalized, 0.2 nM (68Ga) or 0.5 nM (177Lu)
Procedure: as §1, with “plates. […]” for “plates.”
To differentiate between the cell surface bound and internalized fraction, a PMPA-wash (1.0 µM) was performed to remove the specifically bound radioligand.

[3] = lipophilicity (logP), shake flask method; type: physicochemical; conditions: n-octanol and PBS (pH 7.4); radiolabeled compounds; mean ± SD (n = 6)
Procedure: The logP values were determined as described (Weineisen, M., et al., Synthesis and preclinical evaluation of DOTAGA-conjugated PSMA ligands for functional imaging and endoradiotherapy of prostate cancer. EJNMMI research, 2014. 4(1): p. 1). The experimental details are described in the supplementary info.
The determination of the logP was used to assess lipophilicity. The values for the respective radiolabeled compounds from Table 2 were obtained using the shake flask method (n = 6) in n-octanol and PBS (pH 7.4). […] For all compounds, the respective ^177Lu-labeled analog was more lipophilic than the ^68Ga-labeled counterpart.

[4] = molecular target: human serum albumin (HSA) (Homo sapiens, UniProt P02768); assay: HSA binding by HPLC on a column with immobilized human albumin; conditions: natGa- and natLu-labeled inhibitors; HPLC retention time with non-linear regression calibration on nine reference substances
Excerpt: The Fmoc-(9-fluorenylmethoxycarbonyl-) and all other protected amino acid analogs were purchased from Bachem (Bubendorf, Switzerland) or Iris Biotech (Marktredwitz, Germany). Dr. Schottelius from the laboratory of Prof. […] The tritylchloride polystyrene (TCP) resin was obtained from PepChem (Tubingen, Germany). Chematech (Dijon, France) delivered the chelator DOTAGA-anhydride. All necessary solvents and other organic reagents were purchased from either Alfa Aesar (Karlsruhe, Germany), Sigma-Aldrich (Munich, Germany) or VWR (Darmstadt, Germany). Solid phase synthesis of the peptides was carried out by manual operation using an Intelli-Mixer syringe shaker (Neolab, Heidelberg, Germany). […] Analysis of the peptides was performed by applying different gradients of 0.1% (v/v) trifluoroacetic acid (TFA) in H2O (solvent A) and 0.1% TFA (v/v) in acetonitrile (MeCN) (solvent B) with a constant flow of 1 mL/min (specific gradients are cited in the text). […] Human serum albumin (HSA) binding was determined using a Chiralpak HSA 50 x 3 mm 5µm Analytical Column connected to a Chiralpak HSA 10 x 3 mm 5µm Guard Cartridge (Daicel Chemical Industries) purchased from Chiral Technologies Europe (France). Non-linear regression for the HSA binding was performed using OriginPro 2016G. Both retention times tR as well as the capacity factors K' are cited in the text. Preparative RP-HPLC of the peptides was achieved on a Shimadzu HPLC system using a Multospher 100 RP 18-5 (250 x 20 mm) column (CS GmbH, Langerwehe, Germany) with a constant flow of 5 mL/min. […] Radioactivity was detected through connection of the outlet of the UV-photometer to a Nal(TI) well-type scintillation counter from EG&G Ortec (Munich, Germany). […] ESI-mass spectra were acquired on an expression^L CMS mass spectrometer (Advion Ltd., Harlow, UK) and on a Varian 500-MS IT mass spectrometer (Agilent Technologies, Santa Clara, USA). For the HSA binding experiment a Chiralpak HSA 50 x 3 mm 5µm Analytical Column, (Daicel Chemical Industries, LTD) connected to a Chiralpak HSA 10 x 3 mm 5µm Guard Cartridge (Daicel Chemical Industries; Chiral Technologies Europe) was used. Blood samples were collected from volunteers.
The mobile phase consisted of a binary gradient system with a constant total flow rate of 0.5mL/min. Mobile phase A was a 50 mM pH 6.9 ammonium acetate solution, mobile phase B was 2-Propanol (HPLC grade, VWR, Germany). The gradient, of mobile phase A was 100% from 0 to 3 min and from 3 min to the end of each run, mobile phase B was set 20%. […] Afterwards, the actual PSMA inhibitors with unknown HSA binding were measured. More details are found in the supplementary info.
To diminish the influence of temperature and small pH fluctuations of the NH4OAc buffer on binding (retention time), a set of nine substances with known HSA binding coefficients was used to establish a calibration line by non-linear regression (log retention time vs. log HSA [%] binding).

[5] = system: human blood samples
Procedure: Separation of the different blood cells was accomplished by stepwise centrifugation. Erythrocytes were gained after centrifugation at 700 g (1,400 rpm, Biofuge 15, Heraus Sepatech, Osterode, Germany) for 5 min and the pellet was rinsed with 500 µL of ice-cold PBS and again centrifuged. Leukocytes were gained by combination of the supernatant and subsequent centrifugation at 3,100 g (6,200 rpm) with a further washing step with 500 µL of ice-cold PBS and repeated centrifugation. The activities of the pellets (erythrocytes and leukocytes) and the supernatant were measured in a γ-counter. PSMA specific binding was determined by co-incubation with PMPA solution (100 µM).
In addition, 1.0 MBq of the used radiolabeled PSMA ligands were incubated in the presence of PMPA solution (100 µM) to differentiate between specific and unspecific binding.

[6] = molecular target: T1, PSMA; conditions: PSMA I&T (18), values taken from a previous publication (Weineisen 2014), same binding assay; cited from earlier work
[7] = system: LNCaP cells; conditions: PSMA I&T (18), data from a previous publication (Weineisen 2014), normalized to ([125I]I-BA)KuE, 60 min, cited from earlier work
[8] = system: LNCaP tumor xenografts; assay: µPET imaging in mice bearing LNCaP tumor xenografts; conditions: 85 min p.i.; dynamic µPET; LNCaP xenograft
Procedure: For the tumor model, LNCaP cells (approx. 10^7 cells) were suspended 1:1 in serum-free DMEM-F12 medium and Matrigel (BD Biosciences, Germany) and inoculated onto the right shoulder of male, 6 to 8 weeks old CB-17 SCID mice (Charles River Laboratories, Sulzfeld, Germany). Animals were used after the tumor size reached 4 to 8 mm in diameter for experiments.
Imaging experiments were conducted using a Siemens Inveon small animal PET and data analyzed by the associated Inveon Research Workplace software. […] Dynamic imaging was carried out after on-bed injection for 90 min. The static blockade image was obtained, after 1 h p.i. with 15 min acquisition time. Blockade was done by coinjection of 8mg/kg of PMPA. All images were reconstructed using an OSEM3D algorithm without scanner and attenuation correction.
Over a period of 90 min, comparative dynamic µPET scans were performed with ^68Ga-13 and ^68Ga-18 in CB-17 SCID mice bearing LNCaP tumor xenografts to assess the kinetic tissue distribution.

T1 sequence (Q04609 whole entry): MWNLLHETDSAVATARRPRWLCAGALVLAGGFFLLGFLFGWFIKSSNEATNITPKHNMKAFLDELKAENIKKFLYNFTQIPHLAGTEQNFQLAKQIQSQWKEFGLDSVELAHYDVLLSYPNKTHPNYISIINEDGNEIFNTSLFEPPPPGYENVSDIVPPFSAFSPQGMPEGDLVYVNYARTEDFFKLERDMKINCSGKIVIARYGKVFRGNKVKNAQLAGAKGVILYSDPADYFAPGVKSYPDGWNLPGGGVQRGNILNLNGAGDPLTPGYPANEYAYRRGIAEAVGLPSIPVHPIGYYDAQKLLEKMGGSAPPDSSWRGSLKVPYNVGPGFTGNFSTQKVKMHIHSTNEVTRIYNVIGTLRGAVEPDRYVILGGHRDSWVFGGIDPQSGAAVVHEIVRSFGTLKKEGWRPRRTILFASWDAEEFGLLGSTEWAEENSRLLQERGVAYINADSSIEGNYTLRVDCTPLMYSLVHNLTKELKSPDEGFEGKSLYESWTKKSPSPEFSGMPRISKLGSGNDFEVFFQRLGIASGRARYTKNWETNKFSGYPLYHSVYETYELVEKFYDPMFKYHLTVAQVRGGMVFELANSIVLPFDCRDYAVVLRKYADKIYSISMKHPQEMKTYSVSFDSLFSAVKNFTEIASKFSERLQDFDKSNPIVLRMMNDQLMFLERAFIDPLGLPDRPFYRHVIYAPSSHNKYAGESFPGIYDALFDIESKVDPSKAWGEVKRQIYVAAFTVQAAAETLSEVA
Sequence of human serum albumin (HSA) (P02768 25-609): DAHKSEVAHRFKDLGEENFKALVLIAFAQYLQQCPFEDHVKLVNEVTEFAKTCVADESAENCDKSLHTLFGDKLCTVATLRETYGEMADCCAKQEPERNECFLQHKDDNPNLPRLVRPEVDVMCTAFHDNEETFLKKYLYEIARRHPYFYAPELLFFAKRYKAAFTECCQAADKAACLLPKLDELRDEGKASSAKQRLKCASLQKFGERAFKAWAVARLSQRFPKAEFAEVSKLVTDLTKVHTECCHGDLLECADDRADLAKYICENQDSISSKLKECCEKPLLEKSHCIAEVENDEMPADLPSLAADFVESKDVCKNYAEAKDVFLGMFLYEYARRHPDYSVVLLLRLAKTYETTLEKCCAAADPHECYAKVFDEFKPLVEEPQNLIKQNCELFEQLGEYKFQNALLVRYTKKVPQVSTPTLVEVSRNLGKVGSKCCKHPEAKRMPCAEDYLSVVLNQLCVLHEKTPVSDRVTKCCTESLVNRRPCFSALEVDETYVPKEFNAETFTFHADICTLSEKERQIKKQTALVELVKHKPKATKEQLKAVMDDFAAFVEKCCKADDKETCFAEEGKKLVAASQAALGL

| IC50 [1] [nM] | logP [3] | Substance | Internalization [%] [2] | HSA [%] [4] [%] | further results |
| --- | --- | --- | --- | --- | --- |
| 7.1 ± 0.3 | -4.01 ± 0.08 | [^natGa]PSMA I&T Mannose [^nat/68Ga-14] | 8.4 ± 0.2% |  |  |
| 5.8 ± 0.6 | -3.95 ± 0.12 | [^natLu]PSMA I&T Galactose [^nat/177Lu-13] | 60.2 ± 2.8% | 23.3 | internalized fraction of total applied activity [2]: 11.3% |
|  |  | PSMA I&T Galactose [compound 13] | 18.7% ± 4.1% |  |  |
|  |  | [^177Lu]PSMA I&T [^nat/177Lu-18] |  | 78.6 | Binding to erythrocytes ([5]; simultaneous incubation with PMPA (100 µM)): 29.2%; leukocyte fraction ([5]; with PMPA (100 µM)): 0.2%; supernatant ([5]; with PMPA (100 µM)): 70.7%; Binding to erythrocytes ([5]; without PMPA): 38.9%; leukocyte fraction ([5]; without PMPA): 0.1%; supernatant ([5]; without PMPA): 61.1%; IC50 [6]: 7.9 ± 2.4 nM; Internalization [%] [7]: 75.5 ± 1.6% |
|  |  | [^68Ga]PSMA I&T [^nat/68Ga-18] |  | 48.7 | IC50 [6]: 9.4 ± 2.9 nM; Internalization [%] [7]: 59.2 ± 1.7%; Internalization [%] ([7]; listed as [^68Ga]PSMA I&T): 59.2% ± 1.7%; tumor accumulation [8]: 5.8 ± 0.3 %ID/mL |
|  | -4.15 ± 0.07 | [^natGa]PSMA I&T Galactose [^nat/68Ga-13] | 18.7 ± 4.1% | 7.7 |  |
| 5.9 ± 0.5 | -3.85 ± 0.04 | [^natLu]PSMA I&T Mannose [^nat/177Lu-14] | 35.3 ± 2.9% |  |  |

| Substance | IC50 [1] [nM] | logP [3] | Internalization [%] [2] | HSA [%] [4] [%] | further results |
| --- | --- | --- | --- | --- | --- |
| [^natGa]PSMA I&T Cellubiose [^nat/68Ga-15] | 10.8 ± 1.7 |  | 4.0 ± 0.6% |  | internalized fraction of total applied activity [2]: 1.3% |
| [^natLu]PSMA I&T Cellobiose [^nat/177Lu-15] | 12.5 ± 2.3 | -4.04 ± 0.1 | 22.3 ± 1.2% | 19.9 |  |
